Test results from patent publication US7572606B1 (Nereus Pharmaceuticals, Inc., priority 2005, dated 2009).
pEC50: −log10 of the molar value. Peptide text beside a SMILES is read from it. * marks the point of attachment. Cbz = O=C(OCc1ccccc1)*

What was measured:
[1] = system: proteasome in packed whole blood lysate; assay: Dose response on PWBL lysates in vitro; type: biochemical, mouse; details: lysates of vehicle and 0.1 mg/kg Salinosporamide A treated animals
Source text: Palayoor et al., Oncogene 18:7389-94 (1999).

[2] = Stability in solution; type: physicochemical; details: converted to compound VI-1B, mixture 7:3
Experimental: The reaction mixture was stirred at room temperature for about 3 hours. The solvent was evaporated from the reaction mixture to yield the compound of Formula II-48, which was purified by reversed phase HPLC using Ace 5u C18 column (150 mm×22 mm ID) with a solvent gradient of 10% to 70% H2O/Acetonitrile over 15 min, 70 to 100% Acetonitrile over 5 min, holding at 100% Acetonitrile for 4 min, at a flow rate of 14.5 ml/min. Diode array detector was used to monitor the purification process. Compound II-48 (10 mg) eluted as a pure compound at 8.255 min. […] Compound VI-1B: UV (Acetonitrile/H2O) λmax 235 (sh) nm; ESMS, m/z 585.2 (M+H)^+.

[3] = system: LeTx-induced cytotoxicity of RAW264.7 cells; details: cited from earlier work

Compound | pEC50 [3] | other results
CC[C@H](C)[C@H](NC(=O)[C@H]([C@@H](C)CC)N(C)C(C)=O)C(=O)N[C@H](C(=O)N[C@@H](CC(C)C)C(=O)[C@@]1(C)CO1)[C@@H](C)O [Epoxomicin] | – | hydrolysis of the proteasome substrate in PWBL lysates [1]: dose dependent inhibition in the hydrolysis of the proteasome substrate
C[C@]1(O)[C@@H](CCCl)C(=O)N[C@]1(C(=O)SCC(NC(=O)CCC(N)C(=O)O)C(=O)NCC(=O)O)[C@@H](O)[C@@H]1C=CCCC1 (stereo partly shown) [Formula II-48] | – | stability in solution [2]: unstable in solution
CC(=O)N[C@@H](CSC(=O)[C@]1([C@@H](O)C(C)C)NC(=O)[C@H](C)[C@@H]1O)C(=O)O [Lactacystin] | 5.52 | –
CC(C)C[C@@H](C=O)NC(=O)[C@H](CC(C)C)NC(=O)[C@H](CC(C)C)NC(=O)OCc1ccccc1 [MG132] (Cbz-Leu-Leu-Leu-aldehyde) | 5.52 | –
